Source: paper PMC6353975, “Design and activity study of a melittin–thanatin hybrid peptide” (AMB Express, 2019)

Columns and labels:
[1] = thanatin data from the reference; ref Fehlbaum et al. [1996]; cited from earlier work
Excerpt: Table 1 Physicochemical properties of hybrid peptide | column: Isoelectric point (pI)

S. aureus [2] = details: ref Fehlbaum et al. [1996]; Mandard et al. [1998]; cited from earlier work
Excerpt: Thanatin, with a primary structure of […], is a type of antimicrobial peptide consisting of 21 amino acid residues. It is found in the insect Podisus maculiventris. […] It is a peptide consisting of 26 amino acids with a primary structure of […]. […] However, its clinical application is limited by its strong toxicity (mainly hemolytic activity), genotoxicity, and influence on gene expression (Gajski et al. [2016]; Wu et al. [2015]). To ...

S. aureus [3] = assay: In vitro antimicrobial experiments with the recombinant hybrid peptide; format: cell-based, Staphylococcus aureus; details: recombinant peptide from E. coli fusion expression after acid hydrolysis; not obtained pure
Excerpt: To expand the antimicrobial spectrum of thanatin and avoid the toxic effects of melittin, a hybrid antimicrobial peptide was designed according to a previous study (Blondelle and Houghten [1991]). Hemolysis was slightly affected by the removal of C-terminal amino acids of melittin, according to the previous study (Jahnsen et al. [2015]). Four alkaline amino acids (KRKR) are located at the C-terminal amino acids of melittin. The hybrid antimicrobial peptide that includes the full-length of thanatin and the C-terminal of melittin may reveal a stronger and safer antibacterial effect (Leonardo et al. [2012]). The hybrid antimicrobial peptide […]-AGP-[…] was designed using melittin’s C-terminal 15-amino acid mutant GLPL*[…] (L*wild type was A) as the N-terminus and thanatin as the C-terminus and by ligating with AGP to create a hybrid peptide that could inhibit S. aureus without hemolytic activity. The fusion expression of the hybrid peptide was carried out in Escherichia coli by using genetic engineering techniques, and the acid hydrolysis site AP was added to the N-terminus of the hybrid peptide. After the engineered bacteria were fermented, separated, acid-hydrolyzed, and purified, another proline residue was found on the N-terminus of the resulting peptide, that is, […]. […] However, pure hybrid peptide was not obtained due to problems associated with acid hydrolysis. […]

Row | Sequence | Isoelectric point (pI) [1] | inhibition of S. aureus (S. aureus [2]) | inhibition of growth of S. aureus (S. aureus [3])
1 | GSKKPVPIIYCNRRTGKCQRM [Thanatin, thanatin, antimicrobial peptide of 21 amino acid residues found in the insect Podisus maculiventris] | 10.48 | does not inhibit S. aureus | –
2 | PGLPLLISWIKRKRQQGSKKPVPIIYCNRRTGKCQRM [hybrid peptide expressed as fusion in Escherichia coli, acid-hydrolyzed, with another proline on the N-terminus; not obtained pure] | – | – | inhibited the growth of S. aureus
